Experimental data from patent publication US12251465B2, “Dosage form comprising structured solid-solution framework of sparingly-soluble drug and method for manufacture thereof” (priority 2018, dated 2025).
≈ marks a conversion by molar mass, not a printed value.

Assay: Solubility of drug in the dissolution fluid and excipient-fluid solutions (UV absorption)
Assay type: physicochemical
Conditions: 37° C.
Protocol: For determining the solubility of drug in the dissolution fluid, 1 mg ibuprofen particles were put in a UV cuvette. The cuvette was then filled with 2.5 ml of the dissolution fluid (0.1 M HCl in deionized water at 37° C.). The concentration of dissolved drug was monitored by UV absorption using a Perkin Elmer Lambda 1050 Spectrophotometer. Between measurements, the cuvette was flipped at a frequency of 0.5 Hz to stir the solution. The temperature of the solution in the cuvette was maintained at 37° C., during the experiment. When the drug concentration in the solution reached its equilibrium value the drug solubility was recorded.
The solubility of drug in excipient-dissolution fluid solutions was determined by immersing 1.5 mg of the ibuprofen particles and different amounts (1.5-200 mg) of excipient in 2.5 ml dissolution fluid. The excipient was either HPMC or a mixture of 67 wt % HPMC and 33 wt % polyoxyl stearate. The dissolution fluid was 0.1 M HCl in deionized water.

[1] = 1 mg ibuprofen particles in 2.5 ml stirred dissolution fluid

- concentration of dissolved drug at 3000 minutes (50 h) [1]: 40000 ng/mL
- time to reach the solubility c0 [1]: ≤ 15,000 minutes
- solubility (dissolution fluid (0.1 M HCl in deionized water), simulated gastric fluid, thermodynamic from solid, 0.1 M HCl in deionized water, no excipient, read-out: solubility of ibuprofen in the dissolution fluid, c0): ~50 µg/mL (≈ 242 µM)
SMILES: CC(C)Cc1ccc(C(C)C(=O)O)cc1 (stereo not drawn) [ibuprofen]
